Assay results from ChEMBL document CHEMBL1152408, “Characterization of a Dispiroketal Spirolide Subclass from Alexandrium ostenfeldii” (J Nat Prod, 2009).

How the values were obtained:
Type in all cases: organism-based
Mus musculus [1] = assay: Toxicity in ip dosed mouse; settings: in vivo
Mus musculus [2] = assay: Toxicity in ip dosed mouse assessed as transient lethargy up to 2000 ug/kg; settings: in vivo, 2 mg/kg
Mus musculus [3] = assay: Toxicity in ip dosed mouse assessed as transient hunching up to 2000 ug/kg; settings: in vivo, 2 mg/kg

C=C1CCCC2=NC[C@H](C)[C@@H](C)C[C@@]23CCC([C@@H]2C=C(C)C(=O)O2)=C(C)[C@@H]3/C=C(\C)[C@@H](O)C[C@@H]2CC[C@@]3(CC[C@@]4(O[C@@H](CC[C@@]4(C)O)C1)O3)O2
LD50 (Mus musculus [1]): 6.9 µg/kg

C=C1CCCC2=NC[C@H](C)CC[C@@]23CCC([C@@H]2CC(C)C(=O)O2)=C(C)[C@@H]3/C=C(\C)[C@@H](O)C[C@H]2O[C@]3(CC[C@@]4(O[C@@H](CC[C@@]4(C)O)C1)O3)C[C@H]2C (some centres not stated) [SPIROLIDE B]
LD50 (Mus musculus [1]): 6.9 µg/kg

C=C1CCCC2=NC[C@H](C)[C@@H](C)C[C@@]23CCC([C@@H]2C=C(C)C(=O)O2)=C(C)[C@@H]3/C=C(\C)[C@@H](O)C[C@H]2O[C@]3(CC[C@@]4(O[C@@H](CC[C@@]4(C)O)C1)O3)C[C@H]2C [SPIROLIDE C]
LD50 (Mus musculus [1]): 6.9 µg/kg

C=C1CCCC2=NC[C@H](C)[C@@H](C)C[C@@]23CCC([C@@H]2C=C(C)C(=O)O2)=C(C)[C@@H]3/C=C(\C)CC[C@@H]2CC[C@]3(COC[C@]4(O[C@H]1CC[C@@]4(C)O)[C@@H]3O)O2
LD50 (Mus musculus [1]): 6.9 µg/kg

C=C1CCCC2=NC[C@H](C)CC[C@@]23CCC([C@@H]2C=C(C)C(=O)O2)=C(C)[C@@H]3/C=C(\C)[C@@H](O)C[C@H]2O[C@]3(CC[C@@]4(O[C@@H](CC[C@@]4(C)O)C1)O3)C[C@H]2C [SPIROLIDE A]
LD50 (Mus musculus [1]): 6.9 µg/kg

C=C1CCCC2=NC[C@H](C)[C@@H](C)C[C@@]23CCC([C@@H]2C=C(C)C(=O)O2)=C(C)[C@@H]3/C=C(\C)[C@@H](O)C[C@H]2O[C@@]3(C[C@H]2C)O[C@@H](CC[C@@]3(C)O)C1 [Spirolide H]
Activity (Mus musculus [2]): Non-toxic
Activity (Mus musculus [3]): Non-toxic
